We go through one compound from patent US20130273181A1, “METHODS AND COMPOSITIONS FOR DIAGNOSING AND TREATING MUSCLE MYOPATHY DISORDERS” (The Regents of the University of Colorado, a body Corporate, priority 2012, published 2013).

SMILES strings stand for the structures.

Test in all cases: Calcium transient measurements (Fluo-3) in cultured myotubes in response to RyR1 agonist
For assay [1], the target named is T1, RyR1 (Mus musculus, UniProt E9PZQ0).
T1 construct: produced substantial Ca^2+ release in both normal and Ryr1^m1Nisw/m1Nisw myotubes; endogenous in cells; host or cells: cultured myotubes from locomotor-normal mouse embryos
Type of assay: cell-based. Conditions: 4-CmC 0.5 mM, normal myotubes. An excerpt: (§1) RyR1 functions as a muscle isotype of ryanodine receptors that is mechanically activated by Dihydropyridine receptor (hereinafter “DHPR”) to release Ca^2+ from the sarcoplasmic reticulum (hereinafter SR), thus evoking excitation-contraction coupling (hereinafter E-C coupling). In some exemplary methods, whole-cell clamping in combination with a fluorescent Ca^2+ indicator, such as Fluo-3 AM, was used to study the E-C coupling function of RyR1^m1Nisw mutant protein in cultured myotubes. […] Addition of the RyR1 agonist, 4-chloro-m-cresol (4-CmC; 0.5 mM), produced substantial Ca^2+ release in both normal and Ryr1^m1Nisw/m1Nisw myotubes (peak ΔF/F of 1.4±0.1; n=5 vs. 1.2±0.1; n=3, respectively; p>0.05; FIG. 2d, e), compared to Ryr1^tm1Alle/tm1Alle null myotubes (ΔF/F 0.1±0.0; n=6; FIG. 2e). […] However, the rate of SR Ca^2+ release in response to 4-CmC was much slower in Ryr1^m1Nisw/m1Nisw versus normal myotubes (t1/2act=6.5±2.4 vs. 2.2±0.6 s, respectively; p<0.01; FIG. 2d). […] Under controlled physiological conditions, RyR1^m1Nisw/m1Nisw protein may be non-functional compared to wild type RyR1 in skeletal muscle.
(§2) FIG. 2a provides representative recordings of myoplasmic Ca^2+ transients elicited by 50-ms depolarizations from −50 mV to the indicated test potentials for locomotor normal myotubes (left; L. Normal) and Ryr1^m1Nisw/m1Nisw myotubes (right). […] FIG. 2c represents an exemplary histogram illustrating fractions of myotubes that contracted in response to a 100 V, 10 ms electrical stimulus for normal myotubes (black bar), Ryr1^m1Nisw/m1Nisw myotubes, and Ryr1^m1Nisw/m1Nisw myotubes transfected with YFP-tagged wild type RyR1 (RyR1-YFP, grey bar). The total number of myotubes tested is indicated above each bar. The defect of contraction observed in Ryr1^m1Nisw/m1Nisw myotubes (0%) was restored to 50-60% by expression of RyR1-YFP compared to the normal myotubes (90%). […] FIG. 2e represents an exemplary histogram of half-rise time of Ca^2+ transients in response to 4-CmC observed in normal (blackzbar), Ryr1^m1Nisw/m1Nisw (grey bar) and RyR1^tm1Alle/tm1Alle (white bar) myotubes. Error bars represent±SEM. An asterisk indicates a significant difference (p=0.006; t-test). The total number of myotubes tested is indicated above each bar.
(§3) Intracellular Ca^2+ was recorded with Fluo-3 (Invitrogen) at a final concentration of 200 μM that was injected by whole cell configuration, a waiting period of >5 min was used to allow the dye to diffuse into the cell interior. The total change in fluorescence (ΔF/F) was determined from the change in peak fluorescence from initial baseline during stimulation and F was the fluorescence immediately before the test pulse minus the measured average background (non Fluo-3) fluorescence before dye entry. For normal myotubes, average values of fluorescence change (ΔF) for each test potential (V) were fitted according to: (ΔF)=(ΔF)max/{1+exp[(VF−V)/kF]}, where (ΔF)max=1093 au, VF=−1.4 mV and kF=5.5 mV. Fluorescence emission was measured by fluorometer. Ryr1 cDNA was provided by Kurt Beam and Roger Bannister assisted in these experiments.

The target in assay [2] is T2, RyR1 (Mus musculus, UniProt E9PZQ0, E4242G).
T2 construct: produced substantial Ca^2+ release in both normal and Ryr1^m1Nisw/m1Nisw myotubes; endogenous in cells; host or cells: cultured myotubes from locomotor-normal mouse embryos
Type of assay: cell-based. Conditions: 4-CmC 0.5 mM, Ryr1^m1Nisw/m1Nisw myotubes.
Source text: as §1, §2, §3

In assay [3] the test system is RyR1. In kind it is cell-based, mouse. To be noted: 4-CmC; Ryr1^tm1Alle/tm1Alle null myotubes; n=6.
Source text: as §1, §2, §3

T1 sequence (E9PZQ0 whole entry): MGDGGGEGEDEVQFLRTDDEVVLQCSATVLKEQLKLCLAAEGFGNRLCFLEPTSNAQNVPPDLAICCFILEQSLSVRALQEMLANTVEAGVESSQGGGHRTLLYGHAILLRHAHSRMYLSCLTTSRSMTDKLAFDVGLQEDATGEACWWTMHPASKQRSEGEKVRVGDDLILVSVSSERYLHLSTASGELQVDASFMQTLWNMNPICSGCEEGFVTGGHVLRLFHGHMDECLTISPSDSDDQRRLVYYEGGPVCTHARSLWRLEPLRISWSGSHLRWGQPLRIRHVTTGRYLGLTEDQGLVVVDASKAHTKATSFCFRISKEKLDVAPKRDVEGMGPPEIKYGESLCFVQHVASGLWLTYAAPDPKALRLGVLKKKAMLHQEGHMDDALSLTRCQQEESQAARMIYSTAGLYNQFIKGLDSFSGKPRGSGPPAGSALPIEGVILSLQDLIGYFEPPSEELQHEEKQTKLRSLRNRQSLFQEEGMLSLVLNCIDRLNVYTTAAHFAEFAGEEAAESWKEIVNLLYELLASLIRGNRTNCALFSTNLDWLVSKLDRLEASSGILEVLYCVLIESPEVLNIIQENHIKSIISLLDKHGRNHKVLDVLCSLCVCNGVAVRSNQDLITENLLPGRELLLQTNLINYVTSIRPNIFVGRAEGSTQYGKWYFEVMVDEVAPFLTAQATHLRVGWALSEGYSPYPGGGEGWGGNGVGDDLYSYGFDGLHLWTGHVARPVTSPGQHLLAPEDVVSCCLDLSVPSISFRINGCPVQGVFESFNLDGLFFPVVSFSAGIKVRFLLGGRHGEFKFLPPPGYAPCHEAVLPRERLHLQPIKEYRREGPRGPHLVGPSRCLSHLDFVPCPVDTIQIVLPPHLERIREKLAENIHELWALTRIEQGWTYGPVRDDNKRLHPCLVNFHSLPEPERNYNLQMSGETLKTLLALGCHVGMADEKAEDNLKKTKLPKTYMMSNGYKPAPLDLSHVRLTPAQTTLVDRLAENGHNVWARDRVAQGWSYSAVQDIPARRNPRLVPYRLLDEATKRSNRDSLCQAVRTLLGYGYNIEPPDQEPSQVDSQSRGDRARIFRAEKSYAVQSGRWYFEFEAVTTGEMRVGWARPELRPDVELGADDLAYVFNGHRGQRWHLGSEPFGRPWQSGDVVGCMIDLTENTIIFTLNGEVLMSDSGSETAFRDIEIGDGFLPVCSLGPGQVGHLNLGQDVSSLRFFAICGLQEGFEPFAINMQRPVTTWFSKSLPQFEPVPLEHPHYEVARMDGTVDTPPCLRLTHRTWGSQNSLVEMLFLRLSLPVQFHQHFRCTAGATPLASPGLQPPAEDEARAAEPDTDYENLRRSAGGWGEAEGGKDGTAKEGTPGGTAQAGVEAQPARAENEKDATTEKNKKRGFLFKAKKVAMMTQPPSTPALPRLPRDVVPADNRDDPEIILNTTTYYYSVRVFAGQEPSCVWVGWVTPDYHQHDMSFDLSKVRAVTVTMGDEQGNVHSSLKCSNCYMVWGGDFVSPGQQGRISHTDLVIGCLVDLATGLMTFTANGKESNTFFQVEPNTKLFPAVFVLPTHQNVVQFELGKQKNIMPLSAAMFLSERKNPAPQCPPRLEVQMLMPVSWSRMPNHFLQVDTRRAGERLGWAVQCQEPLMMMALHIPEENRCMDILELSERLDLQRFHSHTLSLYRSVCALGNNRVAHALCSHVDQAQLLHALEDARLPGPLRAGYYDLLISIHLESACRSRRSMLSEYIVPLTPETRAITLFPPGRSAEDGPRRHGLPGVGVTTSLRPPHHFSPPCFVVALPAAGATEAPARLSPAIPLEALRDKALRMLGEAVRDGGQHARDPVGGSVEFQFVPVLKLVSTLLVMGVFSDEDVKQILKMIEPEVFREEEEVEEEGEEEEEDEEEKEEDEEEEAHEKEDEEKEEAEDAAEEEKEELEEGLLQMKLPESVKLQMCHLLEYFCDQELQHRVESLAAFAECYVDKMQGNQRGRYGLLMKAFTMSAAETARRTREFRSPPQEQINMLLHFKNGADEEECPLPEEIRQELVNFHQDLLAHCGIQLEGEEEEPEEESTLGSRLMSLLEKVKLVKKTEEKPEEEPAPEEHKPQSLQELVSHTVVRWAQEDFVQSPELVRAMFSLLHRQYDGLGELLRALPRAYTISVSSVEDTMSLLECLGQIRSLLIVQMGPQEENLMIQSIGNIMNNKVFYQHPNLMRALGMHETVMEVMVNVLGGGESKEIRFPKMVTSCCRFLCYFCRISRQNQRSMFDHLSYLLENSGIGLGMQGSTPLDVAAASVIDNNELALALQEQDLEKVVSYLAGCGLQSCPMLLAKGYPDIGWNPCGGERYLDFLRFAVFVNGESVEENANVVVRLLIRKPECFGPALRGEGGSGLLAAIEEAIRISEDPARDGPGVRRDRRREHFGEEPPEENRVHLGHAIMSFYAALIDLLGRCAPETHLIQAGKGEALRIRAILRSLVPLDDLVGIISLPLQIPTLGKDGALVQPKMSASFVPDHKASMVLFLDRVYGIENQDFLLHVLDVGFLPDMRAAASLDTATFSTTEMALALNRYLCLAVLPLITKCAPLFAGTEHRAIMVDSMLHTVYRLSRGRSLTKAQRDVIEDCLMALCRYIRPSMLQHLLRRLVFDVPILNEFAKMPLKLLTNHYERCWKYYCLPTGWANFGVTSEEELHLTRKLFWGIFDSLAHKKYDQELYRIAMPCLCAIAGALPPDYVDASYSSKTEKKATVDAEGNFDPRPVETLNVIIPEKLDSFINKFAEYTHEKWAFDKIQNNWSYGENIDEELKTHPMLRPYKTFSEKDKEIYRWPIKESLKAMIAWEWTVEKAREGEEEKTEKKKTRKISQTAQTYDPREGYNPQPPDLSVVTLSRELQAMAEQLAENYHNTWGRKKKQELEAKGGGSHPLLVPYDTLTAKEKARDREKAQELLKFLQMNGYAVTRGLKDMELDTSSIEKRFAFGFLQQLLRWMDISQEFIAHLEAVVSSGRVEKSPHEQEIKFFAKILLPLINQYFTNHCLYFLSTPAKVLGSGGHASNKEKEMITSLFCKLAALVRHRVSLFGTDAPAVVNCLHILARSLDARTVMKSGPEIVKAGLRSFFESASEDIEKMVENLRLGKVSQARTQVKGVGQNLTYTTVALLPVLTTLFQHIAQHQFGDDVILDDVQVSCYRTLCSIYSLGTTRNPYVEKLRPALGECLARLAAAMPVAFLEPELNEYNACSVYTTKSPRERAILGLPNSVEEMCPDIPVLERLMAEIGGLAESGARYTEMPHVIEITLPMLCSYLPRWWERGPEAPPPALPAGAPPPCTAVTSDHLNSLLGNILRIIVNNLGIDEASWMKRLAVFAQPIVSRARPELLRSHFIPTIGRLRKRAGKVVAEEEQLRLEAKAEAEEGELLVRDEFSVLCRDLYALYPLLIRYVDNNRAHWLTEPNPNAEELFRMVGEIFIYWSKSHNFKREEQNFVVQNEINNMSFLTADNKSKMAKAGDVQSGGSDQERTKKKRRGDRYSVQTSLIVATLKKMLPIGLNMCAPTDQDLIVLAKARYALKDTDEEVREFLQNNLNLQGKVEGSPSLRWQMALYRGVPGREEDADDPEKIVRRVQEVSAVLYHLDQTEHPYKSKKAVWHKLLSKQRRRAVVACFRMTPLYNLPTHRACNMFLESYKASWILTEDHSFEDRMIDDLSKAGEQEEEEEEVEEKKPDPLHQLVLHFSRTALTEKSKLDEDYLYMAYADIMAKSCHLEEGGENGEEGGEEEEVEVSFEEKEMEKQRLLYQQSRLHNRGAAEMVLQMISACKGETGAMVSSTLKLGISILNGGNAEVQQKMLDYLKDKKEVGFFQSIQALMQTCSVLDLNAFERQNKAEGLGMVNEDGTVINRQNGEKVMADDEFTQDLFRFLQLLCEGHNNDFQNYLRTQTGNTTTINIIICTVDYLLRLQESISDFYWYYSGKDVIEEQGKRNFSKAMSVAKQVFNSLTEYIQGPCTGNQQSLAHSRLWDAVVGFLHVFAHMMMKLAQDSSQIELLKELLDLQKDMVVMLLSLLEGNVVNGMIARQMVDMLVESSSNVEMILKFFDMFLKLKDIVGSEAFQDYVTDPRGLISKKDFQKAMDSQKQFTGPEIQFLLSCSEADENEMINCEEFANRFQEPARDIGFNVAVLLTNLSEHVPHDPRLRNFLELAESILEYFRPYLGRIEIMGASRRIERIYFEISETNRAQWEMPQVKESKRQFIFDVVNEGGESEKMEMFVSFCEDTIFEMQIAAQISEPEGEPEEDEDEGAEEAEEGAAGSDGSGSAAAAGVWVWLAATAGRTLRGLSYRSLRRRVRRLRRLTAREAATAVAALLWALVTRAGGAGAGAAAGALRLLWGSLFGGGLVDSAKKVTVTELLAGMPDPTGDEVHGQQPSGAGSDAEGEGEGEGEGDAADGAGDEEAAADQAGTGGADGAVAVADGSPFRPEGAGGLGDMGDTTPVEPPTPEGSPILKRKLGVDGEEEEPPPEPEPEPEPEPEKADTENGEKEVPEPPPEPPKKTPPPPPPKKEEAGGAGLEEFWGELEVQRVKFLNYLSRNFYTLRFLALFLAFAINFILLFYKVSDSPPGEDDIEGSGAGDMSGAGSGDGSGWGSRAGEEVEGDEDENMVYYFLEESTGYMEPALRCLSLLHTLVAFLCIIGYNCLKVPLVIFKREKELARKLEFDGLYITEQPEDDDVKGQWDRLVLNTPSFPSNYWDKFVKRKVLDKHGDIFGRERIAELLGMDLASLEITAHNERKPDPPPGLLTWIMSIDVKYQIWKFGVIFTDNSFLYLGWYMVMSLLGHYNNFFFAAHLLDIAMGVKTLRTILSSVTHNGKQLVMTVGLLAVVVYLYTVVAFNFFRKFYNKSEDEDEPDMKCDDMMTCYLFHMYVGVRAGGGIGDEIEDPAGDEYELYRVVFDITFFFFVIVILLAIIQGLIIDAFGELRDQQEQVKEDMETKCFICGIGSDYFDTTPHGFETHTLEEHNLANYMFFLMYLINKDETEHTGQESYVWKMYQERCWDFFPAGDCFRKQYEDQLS
T2 sequence (E9PZQ0 whole entry E4242G): as the sequence (E9PZQ0 whole entry) above, with E4242G counted along it

In the case of `Cc1cc(O)ccc1Cl` [4-CmC, 4-chloro-m-cresol], the results for the “t1/2act (rate of SR Ca^2+ release)” value at RyR1 [1] and on RyR1 [2] were 2.2 ± 0.6 s and 6.5 ± 2.4 s, respectively. Moreover, the “peak ΔF/F (Ca^2+ release)” value was 1.4±0.1 at RyR1 [1] (n=5) and 1.2±0.1 at RyR1 [2] (n=3). In the assay with RyR1 [3], the “ΔF/F (Ca^2+ release)” value is listed as 0.1±0.0.
